In patent US20220119440A1, “PEPTIDE AND METHOD FOR MANUFACTURING SAME” (AGC Inc., priority 2019, published 2022) one finds Papp A→B and Papp data, which are given here for seven molecules.

Each structure is given as a SMILES string. Where two headings read alike, the source gives them in different places. Peptide text beside a SMILES is read from it. * marks the point of attachment. NHBn = c1ccc(CN*)cc1 A value given as a limit tells only on which side of the number the result lay.

The nature of data set [1]: MDCK-II assay (cell monolayer assay). The settings on record: dog. In kind it is in vitro ADME. As for the experimental part: (§1) Further, with respect to the peptides synthesized in Examples 14, 15 and 17 and Comparative Examples 5,6 and 8, MDCK-II assay was conducted. For the MDCK-II assay, propranolol (CAS No: 318-98-9) was used as a positive control (“PC”) and Norfloxacin (CAS No: 70458-96-7) as a negative control (“NC”).
MDCK-II cells were seeded on Cell Culture Inserts (Falcon) at 5.04×10^4 cells/mL, and 5 days after seeding, cell monolayer assay (MDCK-II assay) was conducted. The peptide stock solution was prepared at 2 mM in DMSO solution, and diluted with HBSS containing 20 mM of HEPES (pH 7.5) to prepare a 2 μM peptide solution using as a solvent 0.1% DMSO/HBSS (+), as a donor solution. The acceptor solution was a 0.1% DMSO solution using as a solvent HBSS (+) containing 20 mM of HEPES (pH 7.5). […] The peptide concentration was analyzed by LC/MS. The experiment was conducted repeatedly three times. The permeability (Papp) was calculated in accordance with the following formula.
A: filter area (0.3 cm^2) VB: basolateral well volume (0.75 cm^3) t: incubation time (s) (2 hours=7200 s) C0: initial concentration in apical chamber (2 μM) CB (t): basolateral compound concentration at time t

Data set [2] is described as follows: PAMPA (Parallel Artificial Membrane Permeability Assay). The format is in vitro ADME. As for the experimental part: as §1
Permeability of the peptides was evaluated by PAMPA. In the PAMPA, 300 μL of a 5% DMSO-containing PBS was added to the respective wells of an accepter plate (MultiScreen 96-well transport receiver plate, manufactured by Merck), and 150 μL of a peptide solution (20 μM) dissolved in 5% DMSO/PBS was added to the respective wells of a donor plate (MultiScreen-IP filter plate, 0.45 μm, manufactured by Merck). A dodecane solution of 1% lecithin (from soybean) was subjected to ultrasonic treatment for 30 minutes before use, and 5 μL of the solution was applied to the membrane support (PVDF) of the respective wells of the donor plate. The donor plate was placed on the acceptor plate, and the plates were left to stand in an incubator at 25° C. for 18 hours. The peptide concentration was determined by LC/MS. The experiment was conducted repeatedly three times. The permeability (Pe) was calculated in accordance with the following formulae.
A: filter area (0.3 cm^2) VD: volume of donor well (0.15 cm^3) VA: volume of acceptor well (0.3 cm^3) t: incubation time (s) (18 hours=64800 s) CD (t): compound concentration in donor well at time t CA (t): compound concentration in acceptor well at time t
On the technique in general: In PAMPA a lipid-coated filter parts donor from acceptor wells.

Setting [3] is: MDCK-II monolayer, 2 μM peptide, apical side to basolateral side, 37° C., 5% CO2, 2 hours, repeated three times, read-out: Papp.
[4] abbreviates: peptide 20 μM in 5% DMSO/PBS, 1% lecithin in dodecane on PVDF, 25° C. for 18 hours, repeated three times, read-out: Pe.

With `CC(=O)N[C@@H](C)C(=O)N[C@@H](C)C(=O)NCc1ccccc1` [Comparative Example 5, Ac-L-Ala-L-Ala-NHBn, reference compound] (Ac-Ala-Ala-NHBn), the Papp A→B at 2 h, 2 μM in data set [1] (MDCK) was determined as 1.23 ×10⁻⁶ cm/s.
The molecule `CC(=O)N[C@H](C(=O)N[C@@H](C)C(=O)N(C)C)C(C)C` [Comparative Example 7, Ac-L-Val-L-Ala-NMe2, reference compound] (Ac-Val-Ala-NMe2) returned a Papp at 18 h, 20 μM in data set [2] of no more than 0.003 ×10⁻⁶ cm/s.
As to `CC(=O)N[C@H](C(=O)N[C@@H](Cc1ccccc1)C(=O)NCC(C)C)C(C)C` [Comparative Example 8, Ac-L-Val-L-Phe-iBu, reference compound], the Papp at 18 h, 20 μM in data set [2] is 0.07 ×10⁻⁶ cm/s. The molecule also showed a Papp A→B at 2 h, 2 μM in data set [1] (MDCK) of 7.12 ×10⁻⁶ cm/s.
Consider `CC(=O)NC(C(=O)N[C@@H](C)C(=O)NCc1ccccc1)C(F)(F)F` (stereo partly drawn) [Example 14, Ac-D,L-Ala (F3)-L-Ala-NHBn], for which the Papp A→B at 2 h, 2 μM in data set [1] (setting [3]) was determined as 3.26 ×10⁻⁶ cm/s.
With `CC(=O)NC(C(=O)N[C@@H](Cc1ccccc1)C(=O)NCC(C)C)C(F)(F)F` (stereo partly drawn) [Example 15, Ac-D,L-Ala (F3)-L-Phe-iBu], the Papp at 18 h, 20 μM in data set [2] (setting [4]) came to 0.19 ×10⁻⁶ cm/s. Further, the Papp A→B at 2 h, 2 μM in data set [1] (setting [3]) came to 9.86 ×10⁻⁶ cm/s.
Consider `CC(=O)NC(C(=O)N[C@@H](C)C(=O)N(C)C)C(C(F)(F)F)C(F)(F)F` (stereo partly drawn) [Example 16, Ac-D,L-Val (F6)-L-Ala-NMe2], for which the Papp at 18 h, 20 μM in data set [2] (setting [4]) stood at 0.04 ×10⁻⁶ cm/s.
`CC(=O)NC(C(=O)N[C@@H](Cc1ccccc1)C(=O)NCC(C)C)C(C(F)(F)F)C(F)(F)F` (stereo partly drawn) [Example 17, Ac-D,L-Val (F6)-L-Phe-iBu]: in data set [2] (setting [4]), the Papp at 18 h, 20 μM worked out at 1.57 ×10⁻⁶ cm/s. For the same molecule, the Papp A→B at 2 h, 2 μM in data set [1] (setting [3]) turned out to be 8.38 ×10⁻⁶ cm/s.
